Data: patent US9278958B2, “Anti-cancer compounds” (KATHOLIEKE UNIVERSITEIT LEUVEN, priority 2012, dated 2016)
Like-named read-outs stand apart in the source and are kept apart here.

What was measured:
[1] = tested on: Caki-1 kidney carcinoma cells; assay: Cytostatic assay, Caki-1; type: cell-based; conditions: Homo sapiens, Table 3
Procedure, shortened: (§1)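 Read-out is the cell number after incubation, counted electronically (Coulter). Cultures started from 5-7.5×10^4 cells per well exposed to compound, kept 48 h to 96 h at 37° C under humidified CO2 control.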

[2] = tested on: U937, human monocytic cells; assay: Cytostatic assay, U937; type: cell-based; conditions: U-937, Table 2
Procedure, shortened: as §1

[3] = tested on: PNT1A (UZ) prostate cells; assay: Cytostatic assay, PNT1A (UZ); type: cell-based; conditions: Homo sapiens, Table 4
Procedure, shortened: as §1

HUT-78 cells = assay: Cytostatic assay, HUT-78; type: cell-based; conditions: Homo sapiens, HuT78; Table 2
Procedure, shortened: as §1

[4] = tested on: FM3A mammary carcinoma cells; assay: Cytostatic assay, FM3A; type: cell-based, murine; conditions: Mus musculus, Table 3
Procedure, shortened: as §1

Huh-7 hepatoma cells = assay: Cytostatic assay, Huh-7; type: cell-based; conditions: Homo sapiens, Table 4
Procedure, shortened: as §1

Sup T1 cells = assay: Cytostatic assay, Sup T1; type: cell-based; conditions: Homo sapiens, Table 2, read-out: Cytostatic activity (μM) Sup T 1
Procedure, shortened: as §1

[5] = tested on: Raji, human B-lymphoma cells; assay: Cytostatic assay, Raji; type: cell-based; conditions: Table 2
Procedure, shortened: as §1

[6] = tested on: HeLa cervix carcinoma cells; assay: Cytostatic assay, HeLa; type: cell-based, human; conditions: Homo sapiens; Table 3; read-out: Cytostatic activity (μM) Hela
Procedure, shortened: as §1

[7] = tested on: HEL embryonic lung fibroblast cells; assay: Cytostatic assay, HEL; type: cell-based; conditions: Homo sapiens, Table 3
Procedure, shortened: as §1

[8] = tested on: OST TK- osteosarcoma cells; assay: Cytostatic assay, OST TK-; type: cell-based; conditions: Homo sapiens; Table 3
Procedure, shortened: as §1

MT-4 cells = assay: Cytostatic assay, MT-4; type: cell-based; conditions: Homo sapiens, MT4; Table 2
Procedure, shortened: as §1

[9] = tested on: 22Rv1 (UZ) prostate cancer cells; assay: Cytostatic assay, 22Rv1 (UZ); type: cell-based; conditions: Homo sapiens, Table 4
Procedure, shortened: as §1

[10] = tested on: HT29 colorectal carcinoma cells; assay: Cytostatic assay, HT29; type: cell-based; conditions: Homo sapiens, HT-29; Table 3
Procedure, shortened: as §1

[11] = tested on: MCF-7 mammary carcinoma cells; assay: Cytostatic assay, MCF-7; type: cell-based; conditions: Homo sapiens, MCF7; Table 3
Procedure, shortened: as §1

[12] = tested on: BAEC aortic endothelial cells; assay: Cytostatic assay, BAEC; type: cell-based, bovine; conditions: Bos taurus, Table 3
Procedure, shortened: as §1

[13] = tested on: broad variety of tumor cell lines; assay: Cytostatic assays, summary over the panel of cell lines (Tables 2-4); type: cell-based; conditions: range over the cell lines of Tables 2-4; read-out: IC50 range (antiproliferative activity)
Protocol: (§2) To each well of a 96-well microtiter plate were added 5-7.5×10^4 cells and a given amount of the test compound. The cells were allowed to proliferate for 48 h to 96 h (depending on the nature of the cell line) at 37° C. in a humidified CO2-controlled atmosphere. At the end of the incubation period, the cells were counted in a Coulter Counter (Coulter Electronics Ltd, Harpenden Herts, United Kingdom).

[14] = tested on: LNCaP (UZ) prostate cancer cells; assay: Cytostatic assay, LNCaP (UZ); type: cell-based; conditions: Homo sapiens, Table 4
Procedure, shortened: as §1

HepG2C3A hepatoma cells = assay: Cytostatic assay, HepG2C3A; type: cell-based; conditions: Homo sapiens, HepG2/C3A; Table 4
Procedure, shortened: as §1

U87 glioma cells = assay: Cytostatic assay, U87; type: cell-based; conditions: Homo sapiens, U-87 MG; Table 3
Procedure, shortened: as §1

PLC/PRF/5 hepatoma cells = assay: Cytostatic assay, PLC/PRF/5; type: cell-based; conditions: Homo sapiens, Table 4
Procedure, shortened: as §1

CEM cells = assay: Cytostatic assay, CEM; type: cell-based; conditions: Homo sapiens, CCRF-CEM
Procedure, shortened: as §1

[15] = tested on: DU145 (UZ) prostate cancer cells; assay: Cytostatic assay, DU145 (UZ); type: cell-based; conditions: Homo sapiens, DU-145; Table 4
Procedure, shortened: as §1

L1210 cells = assay: Cytostatic assay, L1210; type: cell-based; conditions: Mus musculus, Table 2
Protocol: as §2

Molt4/C8 cells = assay: Cytostatic assay, Molt4/C8; type: cell-based; conditions: Table 2
Procedure, shortened: as §1

[16] = tested on: PC-3 (UZ) prostate cancer cells; assay: Cytostatic assay, PC-3 (UZ); type: cell-based; conditions: Table 4
Procedure, shortened: as §1

[17] = tested on: 293T embryonic kidney cells; assay: Cytostatic assay, 293T; type: cell-based; conditions: Homo sapiens, HEK-293T; Table 3
Procedure, shortened: as §1

[18] = tested on: PC3 (rega) prostate cancer cells; assay: Cytostatic assay, PC3 (rega); type: cell-based; conditions: Table 4
Procedure, shortened: as §1

[19] = tested on: Caki-2 kidney carcinoma cells; assay: Cytostatic assay, Caki-2; type: cell-based; conditions: Homo sapiens, Table 3
Procedure, shortened: as §1

[20] = tested on: THP-1, human monocytic cells; assay: Cytostatic assay, THP-1; type: cell-based; conditions: Table 2
Procedure, shortened: as §1

BPH-1 (UZ) = assay: Cytostatic assay, BPH-1 (UZ); type: cell-based; conditions: Homo sapiens, Table 4
Procedure, shortened: as §1

MT-2 cells = assay: Cytostatic assay, MT-2; type: cell-based; conditions: Homo sapiens, MT2; Table 2
Procedure, shortened: as §1

[21] = tested on: HL60, human leukemia cells; assay: Cytostatic assay, HL-60; type: cell-based; conditions: Table 2
Procedure, shortened: as §1

C8166 cells = assay: Cytostatic assay, C8166; type: cell-based; conditions: Homo sapiens, Table 2
Procedure, shortened: as §1

[22] = tested on: protein synthesis in CEM cells; assay: Antimetabolic activity assay, [4,5-3H]leucine incorporation (protein synthesis), CEM; type: cell-based; conditions: Homo sapiens, CCRF-CEM, incorporation into TCA-insoluble material
Protocol: (§3) Radiolabeled precursors of DNA synthesis ([^3H-methyl]dThd), RNA synthesis ([5-^3H]Urd), and protein synthesis ([4,5-^3H]leu) were added to 10^5 CEM cell cultures in the 200 μl-wells of a microtiter plate at 1 μCi for each precursor in the presence of varying concentrations of the test compounds (5-fold dilution series). The cells were allowed to proliferate for 20 hrs at 37° C. in a humidified, CO2-controlled atmosphere. At the end of the incubation period, the contents of the wells were brought onto 25-mm glass fiber filters and further processed for measurement of acid-insoluble radioactivity.

[23] = tested on: DNA synthesis in CEM cells; assay: Antimetabolic activity assay, [CH3-3H]dThd incorporation (DNA synthesis), CEM; type: cell-based; conditions: Homo sapiens, CCRF-CEM, incorporation into TCA-insoluble material
Protocol: as §3

[24] = tested on: protein synthesis in Raji cells; assay: Antimetabolic activity assay, [4,5-3H]leucine incorporation (protein synthesis), Raji; type: cell-based; conditions: Homo sapiens, incorporation into TCA-insoluble material
Protocol: [The procedure below names another cell line; the source lists this cell line under the same test.] as §3

[25] = tested on: RNA synthesis in Raji cells; assay: Antimetabolic activity assay, [5-3H]uridine incorporation (RNA synthesis), Raji; type: cell-based; conditions: Homo sapiens, incorporation into TCA-insoluble material
Protocol: [The procedure below names another cell line; the source lists this cell line under the same test.] as §3

[26] = tested on: RNA synthesis in CEM cells; assay: Antimetabolic activity assay, [5-3H]uridine incorporation (RNA synthesis), CEM; type: cell-based; conditions: Homo sapiens, CCRF-CEM, incorporation into TCA-insoluble material
Protocol: as §3

[27] = tested on: DNA synthesis in Raji cells; assay: Antimetabolic activity assay, [CH3-3H]dThd incorporation (DNA synthesis), Raji; type: cell-based; conditions: Homo sapiens, incorporation into TCA-insoluble material
Protocol: [The procedure below names another cell line; the source lists this cell line under the same test.] as §3

[28] = Table 1a, read-out: IC50 μM (CEM)
[29] = Table 2, read-out: Cytostatic activity (μM) CEM

COc1ccc(-c2cc(C#N)c(N)s2)cc1 [TR582, 2-Amino-5-(4-methoxy-phenyl)-thiophene-3-carbonitrile]
IC50 [1]: 19 ± 18 µM
IC50 [2]: > 200 µM
IC50 [3]: > 100 µM
IC50 (HUT-78 cells): > 200 µM
IC50 [4]: 320 ± 14 µM
IC50 (Huh-7 hepatoma cells): > 100 µM
IC50 (Sup T1 cells): > 200 µM
IC50 [5]: > 100 µM
IC50 [6]: 168 ± 15 µM
IC50 [7]: 33 ± 0.71 µM
IC50 [8]: 134 ± 69 µM
IC50 (MT-4 cells): 76 ± 35 µM
IC50 [9]: 34 ± 26 µM
IC50 [10]: > 100 µM
IC50 [11]: 117 ± 58 µM
IC50 [12]: > 100 µM
IC50 [13]: 24 to 320 µM
IC50 [14]: 4.8 ± 3.4 µM
IC50 (HepG2C3A hepatoma cells): ≥ 100 µM
IC50 (U87 glioma cells): > 100 µM
IC50 (PLC/PRF/5 hepatoma cells): 49 ± 3.5 µM
IC50 (CEM cells; [28]): 233 µM
IC50 (CEM cells; [29]): 233 ± 29 µM
IC50 [15]: > 100 µM
IC50 (L1210 cells): 230 ± 65 µM
IC50 (Molt4/C8 cells): 275 ± 89 µM
IC50 [16]: > 100 µM
IC50 [17]: > 100 µM
IC50 [18]: 69 ± 21 µM
IC50 [19]: ≥ 200 µM
IC50 [20]: 124 ± 25 µM
IC50 (BPH-1 (UZ)): > 100 µM
IC50 (MT-2 cells): ≥ 161 µM
IC50 [21]: ≥ 135 µM
IC50 (C8166 cells): > 200 µM

COC(=O)c1cc(CCc2cc(OC)ccc2OC)sc1N [TR584, 2-Amino-5-[2-(2,5-dimethoxy-phenyl)-ethyl]-thiophene-3-carboxylic acid methyl ester]
IC50 [22]: 1.1 ± 0.5 µM
IC50 [1]: 2.5 ± 0.6 µM
IC50 [23]: 7.5 ± 5.5 µM
IC50 [2]: 4.2 ± 0.07 µM
IC50 [24]: 62 ± 1 µM
IC50 [25]: ≥ 100 µM
IC50 [3]: 0.77 ± 0.31 µM
IC50 (HUT-78 cells): 2.6 ± 2.1 µM
IC50 [4]: 2.5 ± 0.28 µM
IC50 (Huh-7 hepatoma cells): 2.2 ± 0.49 µM
IC50 (Sup T1 cells): 0.61 ± 0.26 µM
IC50 [5]: 2.2 ± 0.28 µM
IC50 [6]: 0.83 ± 0.25 µM
IC50 [7]: 0.87 ± 0.014 µM
IC50 [8]: 0.68 ± 0.33 µM
IC50 (MT-4 cells): 1.6 ± 0.21 µM
IC50 [9]: 0.31 ± 0.087 µM
IC50 [10]: 1.8 ± 0.21 µM
IC50 [11]: 0.93 ± 0.23 µM
IC50 [12]: 2 ± 0.28 µM
IC50 [26]: 2.4 ± 0.2 µM
IC50 [14]: 0.38 ± 0.11 µM
IC50 (HepG2C3A hepatoma cells): 4.5 ± 1.7 µM
IC50 (U87 glioma cells): 1.8 ± 0.071 µM
IC50 (PLC/PRF/5 hepatoma cells): 1.3 ± 0.21 µM
IC50 (CEM cells; [28]): 1.6 µM
IC50 (CEM cells; [29]): 1.6 ± 0.071 µM
IC50 [15]: 1.6 µM
IC50 [27]: 82 ± 6 µM
IC50 (Molt4/C8 cells): 0.42 ± 0.11 µM
IC50 [16]: 0.81 ± 0.42 µM
IC50 [17]: 1.9 µM
IC50 [18]: 0.36 ± 0.18 µM
IC50 [19]: 0.93 ± 0.28 µM
IC50 [20]: 3.1 ± 0.07 µM
IC50 (BPH-1 (UZ)): 1.3 ± 0.071 µM
IC50 (MT-2 cells): 4.2 ± 0.79 µM
IC50 [21]: 0.89 ± 0.3 µM
IC50 (C8166 cells): 1.4 ± 0.76 µM

CCOC(=O)c1c(N)sc(CCc2cc(OC)ccc2OC)c1C(=O)OCC [TR592, 2-Amino-5-[2-(2,5-dimethoxy-phenyl)-ethyl]-thiophene-3,4-dicarboxylic acid diethyl ester]
IC50 [22]: 17 µM
IC50 [1]: 24 ± 0.7 µM
IC50 [23]: 17 ± 8 µM
IC50 [2]: 20 ± 15 µM
IC50 [24]: 23 ± 7 µM
IC50 [25]: 31 ± 19 µM
IC50 [3]: 31 ± 0.71 µM
IC50 (HUT-78 cells): 26 ± 3.5 µM
IC50 [4]: 33 ± 9 µM
IC50 (Huh-7 hepatoma cells): 34 ± 14 µM
IC50 (Sup T1 cells): 4.1 ± 0.4 µM
IC50 [5]: 41 ± 7.1 µM
IC50 [6]: 11 ± 3 µM
IC50 [7]: 35 ± 6.4 µM
IC50 [8]: 17 ± 5.7 µM
IC50 (MT-4 cells): 36 ± 16 µM
IC50 [9]: 14 ± 8.3 µM
IC50 [10]: 43 ± 4.2 µM
IC50 [11]: 27 ± 19 µM
IC50 [12]: 31 ± 4.2 µM
IC50 [26]: 31 ± 22 µM
IC50 [14]: 4.1 ± 3.6 µM
IC50 (HepG2C3A hepatoma cells): 34 ± 12 µM
IC50 (U87 glioma cells): 39 ± 2.8 µM
IC50 (PLC/PRF/5 hepatoma cells): 25 µM
IC50 (CEM cells; [29]): 20 ± 6 µM
IC50 [15]: 18 ± 2.1 µM
IC50 [27]: 25 ± 16 µM
IC50 (Molt4/C8 cells): 24 ± 17 µM
IC50 [16]: 8.5 ± 0.85 µM
IC50 [17]: 30 ± 7.1 µM
IC50 [18]: 12 ± 2.1 µM
IC50 [19]: 42 ± 2.1 µM
IC50 [20]: 20 ± 1.4 µM
IC50 (BPH-1 (UZ)): 28 ± 3.5 µM
IC50 (MT-2 cells): 8.1 ± 1.2 µM
IC50 [21]: 17 ± 0.7 µM
IC50 (C8166 cells): 25 ± 3.5 µM
